Source: patent US11639350B2, “Heteroaryldihydropyrimidine derivatives and methods of treating hepatitis B infections” (Janssen Pharmaceutica NV, priority 2018, dated 2023)

Key:
[1] = tested on: HepG2.2.15 cells; assay: Cytotoxicity determination in HepG2.2.15 cells (CCK-8); format: cell-based; settings: 6 days of compound treatment, CCK-8, highest concentration 100 μM
In short: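 HepG2.2.15 cells seeded at 5,000 cells/well in 2% FBS medium, incubated overnight at 37° C., then treated 6 days with compounds (8 points, 3-fold dilutions, top 100 μM), medium refreshed once midway. CCK-8 added for 2.5 h; A450 read against 630 nm reference; CC50 calculated, averaged over repeats.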

[2] = tested on: HBV; assay: HBV inhibitory activity: HBV DNA in the culture medium of HepG2.2.15 cells by q-PCR; format: cell-based; settings: HepG2.2.15 cells, 6 days of compound treatment, HBV DNA in culture medium by q-PCR, highest concentration 10 μM; read-out: EC50
In short: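 HepG2.2.15 cells in 2% FBS medium, 40,000 per well, treated 6 days with compound (medium refreshed once), eight 3-fold dilutions from 10 μM top. HBV DNA extracted from culture medium and quantified by q-PCR; EC50 averaged over repeats. Cytotoxicity run in parallel at 5,000 cells per well, top 100 μM, giving CC50.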

Row | SMILES | CC50 [1] [µM] | EC50 [2] [µM]
1 | COC(=O)C1=C([C@H]2CC[C@H](C(=O)OC)CC2)NC(c2nccs2)=NC1c1ccc(F)cc1Cl (stereo partly shown) [Compound 18X] | 27.9 | 0.042
2 | COC(=O)C1=C(C2CCN(S(=O)(=O)C3CC(C)(C(=O)O)C3)CC2)NC(c2nccs2)=NC1c1ccc(F)cc1Cl (stereo not drawn) [Compound 142, (cis)-3-((4-(6-(2-chloro-4-fluorophenyl)-5-(methoxycarbonyl)-2-(thiazol-2-yl)-3,6-dihydropyrimidin-4-yl)piperidin-1-yl)sulfonyl)-1-methylcyclobutane-1-carboxylic Acid] | 37.6 | 0.089
3 | COC(=O)C1=C(C2CCN(S(C)(=N)=O)CC2)NC(c2nccs2)=NC1c1ccc(F)c(F)c1Cl (stereo not shown) [Compound 205B, methyl 4-(2-chloro-3,4-difluorophenyl)-6-(1-(S-methylsulfonimidoyl)piperidin-4-yl)-2-(thiazol-2-yl)-1,4-dihydropyrimidine-5-carboxylate] | 40.5 | 0.189
4 | CCOC(=O)C1=C(C2CCN(S(=O)(=O)[C@H]3C[C@](C)(C(=O)O)C3)CC2)NC(c2nccs2)=NC1c1ccc(F)c(F)c1Cl (stereo partly drawn) [Compound 270A, (trans)-3-((4-(6-(2-Chloro-3,4-difluorophenyl)-5-(ethoxycarbonyl)-2-(thiazol-2-yl)-3,6-dihydropyrimidin-4-yl)piperidin-1-yl)sulfonyl)-1-methylcyclobutanecarboxylic Acid] | 9.2 | 0.012
5 | CCOC(=O)C1=C(C2CCN(S(=O)(=O)C3CC(C)(C(=O)O)C3)CC2)NC(c2nccs2)=NC1c1ccc(F)c(F)c1Cl (stereo not drawn) [Compound 270B, (cis)-3-((4-(6-(2-Chloro-3,4-difluorophenyl)-5-(ethoxycarbonyl)-2-(thiazol-2-yl)-3,6-dihydropyrimidin-4-yl)piperidin-1-yl)sulfonyl)-1-methylcyclobutanecarboxylic Acid] | 10.3 | 0.017
6 | CCOC(=O)C1=C(C2CCN(S(=O)(=O)C3CC(C)(C(=O)O)C3)CC2)NC(c2nccs2)=NC1c1ccc(F)cc1Cl (stereo not drawn) [Compound 272A, (trans)-3-((4-(6-(2-Chloro-4-fluorophenyl)-5-(ethoxycarbonyl)-2-(thiazol-2-yl)-3,6-dihydropyrimidin-4-yl)piperidin-1-yl)sulfonyl)-1-methylcyclobutanecarboxylic Acid] | 16.6 | 0.017
7 | CCOC(=O)C1=C(C2CCN(S(=O)(=O)[C@H]3C[C@@](C)(C(=O)O)C3)CC2)NC(c2nccs2)=NC1c1ccc(F)cc1Cl (stereo partly drawn) [Compound 272B, (cis)-3-((4-(6-(2-Chloro-4-fluorophenyl)-5-(ethoxycarbonyl)-2-(thiazol-2-yl)-3,6-dihydropyrimidin-4-yl)piperidin-1-yl)sulfonyl)-1-methylcyclobutanecarboxylic Acid] | 20.1 | 0.047
8 | COC(=O)C1=C(C2CCN(S(=O)(=O)[C@H]3C[C@](C)(C(=O)O)C3)CC2)NC(c2nccs2)=NC1c1cccc(F)c1Cl (stereo partly drawn) [Compound 274A, (trans)-3-((4-(−6-(2-Chloro-3-fluorophenyl)-5-(methoxycarbonyl)-2-(thiazol-2-yl)-3,6-dihydropyrimidin-4-yl)piperidin-1-yl)sulfonyl)-1-methylcyclobutanecarboxylic Acid] | 31.4 | 0.042
9 | COC(=O)C1=C(C2CCN(S(=O)(=O)C3CC(C)(C(=O)O)C3)CC2)NC(c2nccs2)=NC1c1cccc(F)c1Br (stereo not drawn) [Compound 278C, (trans)-3-((4-(6-(2-bromo-3-fluorophenyl)-5-(methoxycarbonyl)-2-(thiazol-2-yl)-3,6-dihydropyrimidin-4-yl)piperidin-1-yl)sulfonyl)-1-methylcyclobutanecarboxylic Acid] | 18.9 | 0.045
10 | COC(=O)C1=C([C@H]2CC[C@H](NS(C)(=O)=O)CC2)NC(c2ncc(F)cc2F)=NC1c1ccc(F)c(F)c1Cl (stereo partly shown) [Compound 298B] | 13.2 | 0.017
11 | COC(=O)C1=C(C2CCN(S(N)(=O)=O)CC2)NC(c2nccs2)=NC1c1ccc(F)c(F)c1Cl (stereo not shown) [Compound 416B] | 13.5 | 0.006
